Experimental data: patent US20260285853A1, “COMPOUNDS AND METHODS FOR MODULATING SPLICING” (REMIX THERAPEUTICS INC., priority 2023, published 2026)
Read-outs that look alike come from different tables or passages of the source.

Columns and labels:
Assay type in all cases: cell-based
[1] = system: HTT mRNA; assay: Splicing RT-qPCR assay (THP), Table 2A
[2] = system: MYB mRNA; assay: Gene panel canonical junction qPCR assay, decrease in CJ mRNA, Table 3
Summary of the method: (§1)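 Cells: A673 or K562; 24 h compound exposure, 37 °C, 5% CO2; 11-pt 3-fold series from 10 uM final; DMSO ≤0.25%. Lysate → cDNA → qPCR with junction-spanning primers/probe for CJ transcript. ΔCt vs housekeeper, ΔΔCt vs DMSO, 2^(−ΔΔCt), % response, 4PL → IC50.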

[3] = system: HTT mRNA; assay: as above
Summary of the method: as §1

[4] = system: MYB mRNA; assay: Splicing RT-qPCR assay (THP), Table 2A
[5] = system: SH-SY5Y (human neuroblastoma) cells; assay: Cell viability, Cell Titer Glo 2.0 assay; conditions: read-out: Viability SHSY5Y.3 GI50
Summary of the method: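 CellTiter-Glo 2.0 luminescence read-out after 72 h compound exposure (37 °C, 5% CO2); medium-only wells as blank. DMSO 0.1% final.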

[6] = Table 2A (THP), AJ mRNA increase, read-out: HTT AJ (increase in alternative junction mRNA, AC50)
[7] = Table 2A (THP), CJ mRNA decrease, read-out: HTT CJ (decrease in canonical junction mRNA, IC50)
[8] = decrease in canonical junction (CJ) mRNA, gene panel qPCR, Table 3
[9] = Table 2A (THP), AJ mRNA increase, read-out: MYB AJ (increase in alternative junction mRNA, AC50)
[10] = Table 2A (THP), CJ mRNA decrease, read-out: MYB CJ (decrease in canonical junction mRNA, IC50)
[11] = Table 2A, THP, HTT alternative junction (AJ) mRNA, read-out: HTT AJ (AC50, increase in alternative junction mRNA)
[12] = Table 2A, THP, HTT canonical junction (CJ) mRNA, read-out: HTT CJ (IC50, decrease in canonical junction mRNA)
[13] = decrease in CJ mRNA levels, canonical junction qPCR, gene panel
[14] = Table 2A, THP, MYB alternative junction (AJ) mRNA, read-out: MYB AJ (AC50, increase in alternative junction mRNA)
[15] = Table 2A, THP, MYB canonical junction (CJ) mRNA, read-out: MYB CJ (IC50, decrease in canonical junction mRNA)

| SMILES | IC50 [1, 7] [µM] | IC50 [2, 8] [µM] | IC50 [3, 8] [µM] | IC50 [4, 10] [µM] | GI50 [5] [µM] | IC50 [1, 12] [µM] | IC50 [2, 13] [µM] | IC50 [3, 13] [µM] | IC50 [4, 15] [µM] | AC50 [1, 6] [µM] | AC50 [4, 9] [µM] | AC50 [1, 11] [µM] | AC50 [4, 14] [µM] |
| --- | --- | --- | --- | --- | --- | --- | --- | --- | --- | --- | --- | --- | --- |
| COc1cc2c(N3C[C@H](C)N[C@@H](C)C3)ccc(C(=O)Nc3cc(F)c4nn(C)cc4c3)n2n1 [Compound 697, 4-[(3S,5S)-3,5-dimethylpiperazin-1-yl]-N-(7-fluoro-2-methyl-indazol-5-yl)-2-methoxy-pyrazolo[1,5-a]pyridine-7-carboxamide] |  |  |  |  | < 0.1 | 0.1 to 1 | < 0.1 | 0.1 to 1 | < 0.1 |  |  | < 0.1 | < 0.1 |
| COc1nc2c(C(=O)Nc3cn4cc(C)nc(C)c4n3)ccc(N3CCC(NC4CC4)CC3)c2s1 [Compound 667, 7-(4-(cyclopropylamino)-piperidin-1-yl)-N-(6,8-dimethylimidazo[1,2-a]pyrazin-2-yl)-2-methoxy-benzo[d]thiazole-4-carboxamide 2,2,2-trifluoroacetate] |  |  |  |  | 1 to 10 | > 10 | > 10 | > 10 | > 10 |  |  | > 10 | 1 to 10 |
| COc1nc2c(C(=O)Nc3cn4ccnc4c(F)c3OC)ccc(N3C[C@H](C)N[C@@H](C)C3)c2s1 [Compound 799] |  |  |  |  | 1 to 10 | > 10 | 1 to 10 | > 10 | 1 to 10 |  |  | > 10 | 1 to 10 |
| CCNC1CCN(c2ccc(C(=O)Nc3cc(C(=O)O)c4nc(C)cn4c3)c3nn(C)cc23)CC1 [Compound 318, 6-[[4-[4-(ethylamino)-1-piperidyl]-2-methyl-indazole-7-carbonyl]amino]-2-methyl-imidazo[1,2-a]pyridine-8-carboxylic acid 2,2,2-trifluoroacetic acid] | > 10 | > 10 | > 10 | > 10 | > 10 |  |  |  |  | > 10 | > 10 |  |  |
| Cc1cn2cc(NC(=O)c3ccc(N4CCC(NC5CC5)CC4)c4cn(C)nc34)nc2c(Cn2cnc(C(N)=O)c2)n1 [Compound 775, N-(8-((4-carbamoyl-1H-imidazol-1-yl)methyl)-6-methylimidazo[1,2-a]pyrazin-2-yl)-4-(4-(cyclopropylamino)piperidin-1-yl)-2-methyl-2H-indazole-7-carboxamide 2,2,2-trifluoroacetate] |  |  |  |  | > 10 | > 10 | > 10 | > 10 | > 10 |  |  | > 10 | > 10 |
| COc1cc2nn(C)cc2cc1NC(=O)c1ccc(N2CCC(NC3CC3)CC2)c2cn(C)nc12 [Compound 444, 4-[4-(cyclopropylamino)-1-piperidyl]-N-(6-methoxy-2-methyl-indazol-5-yl)-2-methyl-indazole-7-carbox-amide] | 1 to 10 | 0.1 to 1 | 1 to 10 | 0.1 to 1 | 0.1 to 1 |  |  |  |  | 1 to 10 | < 0.1 |  |  |
| Cc1cn2cc(NC(=O)c3ccc(N4CC5CNCC5C4)c4cn(C)nc34)nc2c(C)n1 (centres unmarked) [Compound 526] | 1 to 10 | 1 to 10 | 1 to 10 | 1 to 10 | 1 to 10 |  |  |  |  | 1 to 10 | 1 to 10 |  |  |
| Cn1cc2cc(NC(=O)c3c(O)cc(N4CCC(NC5CC5)CC4)c4cn(C)nc34)cc(CNS(C)(=O)=O)c2n1 [Compound 852] |  |  |  |  | 1 to 10 | > 10 | 0.1 to 1 | > 10 | 0.1 to 1 |  |  | 1 to 10 | 0.1 to 1 |
| COc1cc2nn(C)cc2cc1NC(=O)c1c(F)cc(NCC2CCNCC2)c2cn(C)nc12 [Compound 454, 6-fluoro-N-(6-methoxy-2-methyl-indazol-5-yl)-2-methyl-4-(4-piperidylmethylamino)indazole-7-carboxamide] | > 10 | > 10 | > 10 | > 10 | > 10 |  |  |  |  | > 10 | 1 to 10 |  |  |

Further lines, with some results ahead:

| IC50 [1, 7] [µM] | IC50 [2, 8] [µM] | IC50 [3, 8] [µM] | IC50 [4, 10] [µM] | GI50 [5] [µM] | IC50 [1, 12] [µM] | IC50 [2, 13] [µM] | IC50 [3, 13] [µM] | IC50 [4, 15] [µM] | SMILES | AC50 [1, 6] [µM] | AC50 [4, 9] [µM] | AC50 [1, 11] [µM] | AC50 [4, 14] [µM] |
| --- | --- | --- | --- | --- | --- | --- | --- | --- | --- | --- | --- | --- | --- |
| > 10 | > 10 | > 10 | > 10 | > 10 |  |  |  |  | CCNC1CCN(c2ccc(C(=O)Nc3ccn(-c4ccncn4)n3)c3nn(C)cc23)CC1 [Compound 363, 4-(4-(ethylamino)-piperidin-1-yl)-2-methyl-N-(1-(pyrimidin-4-yl)-1H-pyrazol-3-yl)-2H-indazole-7-carboxamide 2,2,2-trifluoroacetate] | > 10 | > 10 |  |  |
|  |  |  |  | 0.1 to 1 | 0.1 to 1 | < 0.1 | 0.1 to 1 | < 0.1 | CCNC1CCN(c2ccc(C(=O)Nc3cc4cn(C)nc4cc3OC)c3nc(C)cn23)CC1 [Compound 628, 5-[4-(ethylamino)-1-piperidyl]-N-(6-methoxy-2-methyl-indazol-5-yl)-2-methyl-imidazo[1,2-a]pyridine-8-carboxamide] |  |  | 0.1 to 1 | < 0.1 |
|  |  |  |  | 0.1 to 1 | > 10 | 0.1 to 1 | > 10 | 0.1 to 1 | Cc1cn2cc(NC(=O)c3cc(F)c(N4CCC(NC5CC5)CC4)c4cn(C)nc34)cc(F)c2n1 [Compound 713, 4-[4-(cyclopropylamino)-1-piperidyl]-5-fluoro-N-(8-fluoro-2-methyl-imidazo[1,2-a]pyridin-6-yl)-2-methyl-indazole-7-carboxamide] |  |  | > 10 | 0.1 to 1 |
| > 10 | 1 to 10 | > 10 | 1 to 10 | 1 to 10 |  |  |  |  | CNCC1CCCN(c2ccc(C(=O)Nc3cc4cn(C)nc4cc3OC)c3nn(C)cc23)C1 (centres unmarked) [Compound 545] | > 10 | 1 to 10 |  |  |
| 0.1 to 1 | < 0.1 | 0.1 to 1 | < 0.1 | 1 to 10 |  |  |  |  | COc1cc2nn(C)cc2cc1NC(=O)c1cnc(N2CCC(NC3CC3)CC2)c2cn(C)nc12 [Compound 434, 4-[4-(cyclopropylamino)-1-piperidyl]-N-(6-methoxy-2-methyl-indazol-5-yl)-2-methyl-pyrazolo[4,3-c]pyridine-7-carboxamide] | 0.1 to 1 | < 0.1 |  |  |
|  |  |  |  | 1 to 10 | > 10 | 0.1 to 1 | > 10 | 0.1 to 1 | COc1nc2c(C(=O)Nc3cc(F)c4nn(C)cc4c3)ccc(N3C[C@@H](C)NC4(CC4)C3)c2s1 [Compound 788] |  |  | > 10 | < 0.1 |
| > 10 | > 10 | > 10 | > 10 | 1 to 10 |  |  |  |  | COc1cc2nn(C)cc2cc1C#Cc1ccc(N2CCC(NC3CC3)CC2)c2cn(C)nc12 [Compound 437, N-cyclopropyl-1-[7-[2-(6-methoxy-2-methyl-indazol-5-yl)ethynyl]-2-methyl-indazol-4-yl]-piperidin-4-amine] | > 10 | > 10 |  |  |
|  |  |  |  | 0.1 to 1 | 0.1 to 1 | < 0.1 | 0.1 to 1 | < 0.1 | COc1nc2nc(C)cn2cc1NC(=O)c1cnc(N2CCC(NC3CC3)CC2)c2cn(C)nc12 [Compound 608, 4-[4-(cyclopropylamino)-1-piperidyl]-N-(7-methoxy-2-methyl-imidazo[1,2-a]-pyrimidin-6-yl)-2-methyl-pyrazolo-[4,3-c]pyridine-7-carboxamide] |  |  | < 0.1 | < 0.1 |
| > 10 | > 10 | > 10 | > 10 | 1 to 10 |  |  |  |  | CCNC1CC2(C1)CN(c1ccc(C(=O)Nc3cn4cc(C)nc(C)c4n3)c3nn(C)cc13)C2 [Compound 576] | > 10 | > 10 |  |  |
| 1 to 10 | 1 to 10 | 1 to 10 | 1 to 10 | 1 to 10 |  |  |  |  | Cc1cn2cc(NC(=O)c3ccc(N4CCC(NC5CC5)CC4)c4cn(C)nc34)cc(Oc3ccnnc3)c2n1 [Compound 322, 4-[4-(cyclopropyl-amino)-1-piperidyl]-2-methyl-N-(2-methyl-8-pyridazin-4-yloxy-imidazo[1,2-a]-pyridin-6-yl)-indazole-7-carboxamide] | 1 to 10 | 1 to 10 |  |  |
|  |  |  |  | < 0.1 | 0.1 to 1 | < 0.1 | 0.1 to 1 | < 0.1 | CNc1nc2c(C(=O)Nc3cc(F)c4nn(C)cc4c3)ccc(N3C[C@H](C)N[C@@H](C)C3)c2s1 [Compound 699, 7-[(3S,5S)-3,5-dimethylpiperazin-1-yl]-N-(7-fluoro-2-methyl-indazol-5-yl)-2-(methylamino)-1,3-benzothiazole-4-carboxamide] |  |  | 0.1 to 1 | < 0.1 |
